The values that follow are results of earlier work, collected in US6586615B1, “α-aminoboronic acids prepared by novel synthetic methods” (Bristol-Myers Squibb Company, priority 2001, dated 2003).

The series deals with chymotrypsin (Bos taurus, UniProt P00766). As to conditions: inhibits chymotrypsin; background, Matteson J. Am. Chem. Soc. 103, 5241-5242 (1981).

`CC(=O)NC(Cc1ccccc1)B(O)O` (stereo not shown) [Ac-boroPhe-OH]: the Ki (in general, a dissociation constant, usually derived from enzyme kinetics or from competition with a known ligand) is 2100 nM.
